Reference: patent US9939427B2, “Method for evaluating the scent performance of perfumes or perfume mixtures” (Symrise AG, priority 2013, dated 2018)
Entries after “also recorded” stand apart in the source; their conditions may differ.

Assays:
[1] = molecular target: T1, OR1B1 (Homo sapiens, UniProt Q8NGR6); experiment: Ca-imaging of OR1B1-transfected HEK293 cells; assay type: cell-based
T1 construct: specific primers, which amplify the complete open reading frame; expressed in transfected cells; host or cells: HEK293
T1 sequence (Q8NGR6 1-317): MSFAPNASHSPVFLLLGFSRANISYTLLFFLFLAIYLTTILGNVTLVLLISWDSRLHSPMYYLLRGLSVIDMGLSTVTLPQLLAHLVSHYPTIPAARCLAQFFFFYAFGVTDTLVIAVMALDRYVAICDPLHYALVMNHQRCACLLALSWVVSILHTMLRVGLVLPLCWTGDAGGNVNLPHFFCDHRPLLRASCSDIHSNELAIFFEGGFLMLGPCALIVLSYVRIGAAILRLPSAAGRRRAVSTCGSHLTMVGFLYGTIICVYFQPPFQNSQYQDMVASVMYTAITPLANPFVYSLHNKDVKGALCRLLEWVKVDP
Description: (§1) HEK293 cells were cultivated in Petri dishes (Ø35 mm) as previously described (Benbernou et al. 2007). We grow up HEK293 cells in culture medium containing standard DMEM with 10% heat-inactivated fetal bovine serum, 2 mM L-glutamine, 100 units/ml penicillin, and 100 units/ml streptomycin in a humidified atmosphere (37° C., 5% CO2). After 2-3 days, the transfection process was carried out, whereby the cell culture was 70-80% confluent. The calciumphosphate method was applied to transfect DNA plasmid transiently in HEK293 cells in case of Ca-imaging method.
(§2) Calcium cations and phosphate anions created crystal precipitations coupled with DNA which could invade into the cells through endocytosis. Cells were transiently transfected with plasmid DNA which consists of pCI expression vector and PCR-amplified full-length cDNA of olfactory receptors candidates, and also Gα15, RTP1, Myr-Ric8A, HSC70, and m-Cherry as cofactors. The precipitation could be created after 15-20 min, with dropping the transfection solution on HEK293 cells. Before measuring by Ca-imaging cells were incubated 48-60 hours at 370 C, 5% CO2. Cationic liposome-mediated transfection method was applied to transfect DNA plasmid transiently in HANA3A cells in case of CRE-Luciferase and CRE-SEAP assays.
(§3) Calcium imaging of the transfected HEK293 cells was done by using chambers determinate an inverted microscope (Olympus; IX70) using a 10× objective (CPIanFL N Olympus). Fluorescence emission was determined every 4 s by using a CCD camera (Charge Coupled Device, C9100 Hamamatsu). The capillary tube which was responsible to supply odorants was generated closely above the cells. The columns filled with odorants, DMSO and ATP. Odorants were manually monitored to drop each 4-5 s to transfected cells. Solutions with drop wise form spread on HEK293 cells in 35 mm dishes.
(§4) In experiments, Fura-2 Acetoxymethylester (Fura-2/AM) was applied. The non-polar Fura2/AM is fluorescent but not yet calcium-sensitive. Once diffuses into cell plasma, Fura-2/AM is hydrolyzed to Fura-2 which is calcium-sensitive and functions as Ca2+ chelator. Regardless of the presence of calcium, Fura-2 emits at the wavelength of 510 nm. Once Fura-2 binds to free intracellular Ca2+ in cell plasma, its ratio of excitation at wavelengths of 340 nm and 380 nm is changed and correlated to the amount of intracellular Ca2+. According to this feature, the analysis of 340/380 nm excitation ratio for Fura-2 allows to quantify intracellular calcium levels.
(§5) In preparation for Ca-imaging measurements, transfected HEK293 cells were added 3 it Fura2/AM (3 μM) and incubated 30-45 min at 370 C, 5% CO2. After this step, experiments were carried out in a dark condition (Fura-2 is light-sensitive). After the incubation, medium of cell culture was replaced with 2 ml Ringer's solution.
(§6) Odorants were freshly prepared with DMSO as 1 M stocks solutions. Six mixtures (200 μM each chemical) were applied to cells sequentially (20 s each mixture/30 s Ringer). Those ORs tested with single odorants that had generated a response to odorant mixture group previously. Odorants were prepared in 100-200 μM concentration.
(§7) Ringer's solution was used for washing cells between measuring by two different odorants. Positive response was determined by the timing of the response, the strength of the response (more than twofold higher than the noise amplitude of the baseline), and the shape of the response curve (sharp rise in curve with gradual recovery). The typical shape of response curves was established by observing responses to repeated stimulation with 200 μM of odorants. After testing with single odorants at 100 μM, stimulating odorants were often retested at 200 μM concentrations. To confirm the result of every receptor that produced a significant response curves, the experiment was repeated for twelve times. Finally, cells were exposed to ATP (0.25 mM) which could activate P2Y receptor channel and induce Ca2+ influx into cells. […]

[2] = test system: HEK293 cells transfected with all cofactors and pCI plasmids without ORs; experiment: Ca-imaging of control HEK293 cells without OR; assay type: cell-based; details: 200 μM, steroid comparison
Description: as §1, §2, §3, §4, §5, §6, §7

[3] = molecular target: T2, OR1B1-574 (Homo sapiens, UniProt Q8NGR6); experiment: Ca-imaging of mutant OR1B1-574 in HEK293 cells; assay type: cell-based; details: 200 μM, applied for 20 seconds
T2 construct: Rho-tag (N); expressed in transfected cells; host or cells: HEK293
Source text: (§8) Mutations were introduced for OR1B1 and OR10Q1 by Overlap Extension PCR (OEP). […] Flanking primers in combination with internal primers provided mutated gene segments, Full length primers included EcoRI and NotI restriction sites for further cloning into pCI expression vector. Site-directed mutations were selected for base of minor allele frequency of nucleotide.
(§9) In mutagenesis by overlap extension PCR method, initial PCRs provided mutated gene segments, with overlapping complementary 3′ ends carrying desired point mutation that were then mixed and used as template for a subsequent PCR to generate the full-length product. Overlapping strands of these intermediate products hybridize at this 3′ region in a subsequent PCR and are extended to generate the full-length product amplified by flanking primers; this shown in FIG. 2. […]
(§10) Calcium imaging of the transfected HEK293 cells was done by using chambers determinate an inverted microscope (Olympus; IX70) using a 10× objective (CPIanFL N Olympus). Fluorescence emission was determined every 4 s by using a CCD camera (Charge Coupled Device, C9100 Hamamatsu). […] Odorants were manually monitored to drop each 4-5 s to transfected cells. […]
(§11) In experiments, Fura-2 Acetoxymethylester (Fura-2/AM) was applied. […] According to this feature, the analysis of 340/380 nm excitation ratio for Fura-2 allows to quantify intracellular calcium levels. […]

[4] = test system: OR1B1-688; experiment: Ca-imaging of mutant OR1B1-688 in HEK293 cells; assay type: cell-based, human; details: 200 μM, applied for 20 seconds
Source text: as §8, §9, §10, §11

[5] = molecular target: T3, OR1B1-789 (Homo sapiens, UniProt Q8NGR6, C262W); experiment: Ca-imaging of mutant OR1B1-789 in HEK293 cells; assay type: cell-based; details: 200 μM, applied for 20 seconds
T3 construct: Full length primers included EcoRI and NotI restriction sites for further cloning into pCI expression vector; Rho-tag (N); expressed in transfected cells; host or cells: HEK293
Source text: as §8, §9, §10, §11

[6] = molecular target: T4, OR4E2 (Homo sapiens, UniProt Q8NGC2); experiment: Ca-imaging of OR4E2-transfected HEK293 cells; assay type: cell-based; design: key: ▪: 18 olfactory receptors responded to 32 odorants in related with specific anosmia; details: individual odorant 200 μM, significant response p<0.05
T4 construct: specific primers, which amplify the complete open reading frame; expressed in transfected cells; host or cells: HEK293
T4 sequence (Q8NGC2 1-313): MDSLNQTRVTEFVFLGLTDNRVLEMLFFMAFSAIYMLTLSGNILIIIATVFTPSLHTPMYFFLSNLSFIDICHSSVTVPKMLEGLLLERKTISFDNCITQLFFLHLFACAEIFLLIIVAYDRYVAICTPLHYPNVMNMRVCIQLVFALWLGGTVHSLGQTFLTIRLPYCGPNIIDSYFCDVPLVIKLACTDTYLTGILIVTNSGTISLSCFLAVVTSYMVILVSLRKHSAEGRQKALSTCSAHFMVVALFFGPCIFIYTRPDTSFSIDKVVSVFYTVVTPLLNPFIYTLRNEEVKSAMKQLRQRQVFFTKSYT
Description: as §1
as §2, with “Cationic liposome-mediated transfection method was applied to transfect DNA plasmid transiently in HANA3A cells in case of CRE-Luciferase and CRE-SEAP assays.” left out
as §10, §11
Ringer's solution was used for washing cells between measuring by two different odorants. Positive response was determined by the timing of the response, the strength of the response (more than twofold higher than the noise amplitude of the baseline), and the shape of the response curve (sharp rise in curve with gradual recovery). […]

[7] = molecular target: T5, OR12D2 (Homo sapiens, UniProt P58182); experiment: Ca-imaging of OR12D2-transfected HEK293 cells; assay type: cell-based; design: key: ▪: 18 olfactory receptors responded to 32 odorants in related with specific anosmia; details: individual odorant 200 μM, significant response p<0.05
T5 construct: specific primers, which amplify the complete open reading frame; expressed in transfected cells; host or cells: HEK293
T5 sequence (P58182 1-307): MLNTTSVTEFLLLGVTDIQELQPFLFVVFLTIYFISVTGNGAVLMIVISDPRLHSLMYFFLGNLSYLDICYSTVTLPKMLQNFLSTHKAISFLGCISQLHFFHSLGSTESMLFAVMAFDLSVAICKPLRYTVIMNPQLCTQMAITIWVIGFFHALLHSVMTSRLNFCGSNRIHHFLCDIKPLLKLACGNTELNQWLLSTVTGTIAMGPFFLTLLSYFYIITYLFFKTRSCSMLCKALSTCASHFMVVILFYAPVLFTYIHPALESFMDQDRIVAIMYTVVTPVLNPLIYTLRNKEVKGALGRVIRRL
Description: In preparation for Ca-imaging measurements, transfected HEK293 cells were added 3 it Fura2/AM (3 μM) and incubated 30-45 min at 370 C, 5% CO2. After this step, experiments were carried out in a dark condition (Fura-2 is light-sensitive). […]

T3 sequence (Q8NGR6 whole entry C262W): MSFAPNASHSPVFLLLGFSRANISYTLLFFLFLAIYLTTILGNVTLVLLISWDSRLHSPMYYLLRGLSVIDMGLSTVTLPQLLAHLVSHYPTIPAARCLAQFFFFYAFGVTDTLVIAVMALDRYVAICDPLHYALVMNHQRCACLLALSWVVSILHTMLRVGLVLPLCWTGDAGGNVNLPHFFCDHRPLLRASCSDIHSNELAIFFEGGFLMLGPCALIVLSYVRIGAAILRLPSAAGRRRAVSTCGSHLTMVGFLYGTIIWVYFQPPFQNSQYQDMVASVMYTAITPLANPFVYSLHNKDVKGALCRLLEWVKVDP

C[C@]12CC[C@H]3[C@@H](CCC4=CC(=O)CC[C@@]43C)[C@@H]1CC[C@@H]2O [testosterone]
Number of cell responses of OR1B1 (FIG. 8) ([1]; 200 μM, approximately 2000 cells in three times of measuring, steroid comparison): 12 | Response of OR1B1 to odorant, in words ([1]; Ca-imaging, single odorants 200 μM): responded | Number of cell responses in controls (FIG. 8, 11, 12) [2]: 1 | Response of OR1B1-574 in comparison to OR1B1 WT [3]: not able to reproduce responses | Response of OR1B1-688 in comparison to OR1B1 WT [4]: no significantly different responses; also recorded: did not show any significant difference | Response of OR1B1-789 in comparison to OR1B1 WT [5]: no significantly different responses; also recorded: did not show any significant difference

CC(C)=CCC/C(C)=C/CO [Graniol, Geraniol]
OR4E2 responded to odorant [6]: ▪

CC(C)CC(=O)O [Isovaleric acid]
OR12D2 responded to odorant [7]: ▪
